Measurements published in ChEMBL document CHEMBL1201862, “PubChem BioAssay data set” (2004).
Values belong to the compound of their own block, whether it stands above or below them. Calls of active or inactive are those of the source.

How the values were obtained:
[1] = molecular target: DNA dC->dU-editing enzyme APOBEC-3A (Homo sapiens, UniProt P31941); assay: Dose Response confirmation of small molecule APOBEC3A DNA Deaminase Inhibitors via a fluorescence-based single-stranded DNA deaminase assay. [Related pubchem assays (depositor defined):AID493011, AID493024]; format: functional
Chain of DNA dC->dU-editing enzyme APOBEC-3A (P31941 whole entry): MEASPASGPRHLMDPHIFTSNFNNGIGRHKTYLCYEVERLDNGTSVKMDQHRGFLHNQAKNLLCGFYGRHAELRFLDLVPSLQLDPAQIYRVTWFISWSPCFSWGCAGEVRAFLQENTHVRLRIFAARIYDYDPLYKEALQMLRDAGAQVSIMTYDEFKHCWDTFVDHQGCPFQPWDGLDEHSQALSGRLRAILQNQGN

Genome polyprotein = Genome polyprotein (dengue virus type 2, UniProt P29990); assay: Dengue-2 NS5 methyltransferase inhibitors, primary screen, biochemical, confirmation dose response (AID 588689); format: functional
Chain of Genome polyprotein (P29990 2492-3391 limits assumed): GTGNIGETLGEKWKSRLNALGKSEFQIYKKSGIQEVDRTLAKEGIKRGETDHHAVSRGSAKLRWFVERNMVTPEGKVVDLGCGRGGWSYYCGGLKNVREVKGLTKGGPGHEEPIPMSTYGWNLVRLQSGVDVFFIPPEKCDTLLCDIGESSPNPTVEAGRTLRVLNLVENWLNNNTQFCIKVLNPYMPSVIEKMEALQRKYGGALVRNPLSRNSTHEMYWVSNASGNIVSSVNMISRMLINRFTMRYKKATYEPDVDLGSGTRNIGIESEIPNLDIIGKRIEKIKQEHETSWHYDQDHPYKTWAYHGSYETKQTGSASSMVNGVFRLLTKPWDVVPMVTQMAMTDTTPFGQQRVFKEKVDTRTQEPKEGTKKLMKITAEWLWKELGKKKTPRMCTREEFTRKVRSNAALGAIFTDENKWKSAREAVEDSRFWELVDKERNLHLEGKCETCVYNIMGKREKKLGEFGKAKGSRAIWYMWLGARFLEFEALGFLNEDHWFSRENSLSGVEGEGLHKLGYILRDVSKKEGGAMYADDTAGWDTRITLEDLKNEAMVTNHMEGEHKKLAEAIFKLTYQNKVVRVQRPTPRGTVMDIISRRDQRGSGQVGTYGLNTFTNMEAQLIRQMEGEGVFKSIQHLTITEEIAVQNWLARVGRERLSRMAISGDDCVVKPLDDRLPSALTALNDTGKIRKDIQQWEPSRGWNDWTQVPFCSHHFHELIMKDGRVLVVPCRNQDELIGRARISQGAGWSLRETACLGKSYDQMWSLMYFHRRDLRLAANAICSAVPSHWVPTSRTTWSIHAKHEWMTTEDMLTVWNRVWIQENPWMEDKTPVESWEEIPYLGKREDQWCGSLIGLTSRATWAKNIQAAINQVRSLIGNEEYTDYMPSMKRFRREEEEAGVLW

[2] = molecular target: DNA dC->dU-editing enzyme APOBEC-3G (Homo sapiens, UniProt Q9HC16); format: functional;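 note: Dose-response counterscreen measuring inhibition of APOBEC3G DNA deaminase activity, run while confirming APOBEC3A inhibitors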
Chain of DNA dC->dU-editing enzyme APOBEC-3G (Q9HC16 whole entry, the tested form may be a part): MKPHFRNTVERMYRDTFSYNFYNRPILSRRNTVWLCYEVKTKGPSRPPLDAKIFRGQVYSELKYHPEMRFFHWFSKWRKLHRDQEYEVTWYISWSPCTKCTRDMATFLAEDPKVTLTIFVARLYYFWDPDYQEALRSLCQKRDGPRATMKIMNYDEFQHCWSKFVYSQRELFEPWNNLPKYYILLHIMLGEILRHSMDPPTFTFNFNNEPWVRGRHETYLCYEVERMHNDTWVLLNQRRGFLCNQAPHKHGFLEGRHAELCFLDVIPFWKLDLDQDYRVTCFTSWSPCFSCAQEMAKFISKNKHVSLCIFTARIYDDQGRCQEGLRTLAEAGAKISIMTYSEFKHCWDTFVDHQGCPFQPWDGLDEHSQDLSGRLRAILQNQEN

[3] = molecular target: T1, Carboxy-terminal domain RNA polymerase II polypeptide A small phosphatase 1 (Homo sapiens, UniProt Q9GZU7); assay: inhibitors of CTDSP1, concentration-response testing, biochemical assay, absorbance-based, actives from ultra-high-throughput screening (AID 540297); format: functional
T1 sequence (Q9GZU7 whole entry): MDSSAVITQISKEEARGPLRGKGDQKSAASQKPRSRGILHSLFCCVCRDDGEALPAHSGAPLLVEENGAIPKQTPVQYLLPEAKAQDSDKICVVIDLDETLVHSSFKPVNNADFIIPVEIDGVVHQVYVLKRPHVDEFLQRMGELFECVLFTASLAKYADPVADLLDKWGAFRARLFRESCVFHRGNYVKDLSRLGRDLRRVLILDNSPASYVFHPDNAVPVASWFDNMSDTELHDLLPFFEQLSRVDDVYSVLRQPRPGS

[4] = molecular target: T2, RNA-binding protein pos-1 (Caenorhabditis elegans, UniProt G5EF15); assay: inhibitors of POS-1/mex-3 RNA binding, dose response, biochemical, fluorescence polarization (AID 1964);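 note: purified POS-1 fused to maltose binding protein made in E. coli; potency of compounds blocking POS-1 binding to fluorescent RNA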
T2 sequence (G5EF15 whole entry): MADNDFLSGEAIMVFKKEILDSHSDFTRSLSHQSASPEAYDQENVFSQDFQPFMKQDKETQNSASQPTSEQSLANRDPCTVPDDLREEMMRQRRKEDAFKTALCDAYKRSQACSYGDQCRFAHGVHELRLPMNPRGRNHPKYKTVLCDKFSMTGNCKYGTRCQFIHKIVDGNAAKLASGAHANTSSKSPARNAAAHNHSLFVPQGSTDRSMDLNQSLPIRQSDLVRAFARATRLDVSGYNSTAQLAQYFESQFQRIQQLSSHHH

[5] = molecular target: T3, Zinc finger protein mex-5 (Caenorhabditis elegans, UniProt Q9XUB2); assay: MEX-5/TCR-2 RNA interaction inhibitors, dose response, biochemical, C. elegans, fluorescence polarization (AID 1960)
T3 sequence (Q9XUB2 whole entry): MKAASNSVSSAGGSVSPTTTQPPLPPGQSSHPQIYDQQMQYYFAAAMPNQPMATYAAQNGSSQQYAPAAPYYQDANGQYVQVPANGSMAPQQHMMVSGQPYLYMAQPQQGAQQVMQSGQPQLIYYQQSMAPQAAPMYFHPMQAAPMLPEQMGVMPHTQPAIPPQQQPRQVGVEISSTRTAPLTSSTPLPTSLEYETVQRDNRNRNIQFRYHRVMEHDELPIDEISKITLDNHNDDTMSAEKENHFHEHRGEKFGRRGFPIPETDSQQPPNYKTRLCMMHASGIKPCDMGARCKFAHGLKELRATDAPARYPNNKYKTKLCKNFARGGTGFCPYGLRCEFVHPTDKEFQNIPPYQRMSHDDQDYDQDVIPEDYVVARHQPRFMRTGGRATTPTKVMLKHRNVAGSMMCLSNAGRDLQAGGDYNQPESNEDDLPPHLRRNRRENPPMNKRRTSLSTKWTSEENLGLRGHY

[6] = molecular target: G-protein coupled receptor 55 (Homo sapiens, UniProt Q9Y2T6); assay: GPR55 antagonists blocking LPI-driven arrestin recruitment, primary screen, imaging, U2OS, beta-arrestin-GFP, LPI agonist (AID 2013); format: functional;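 note: antagonist potency measured as reduced agonist-driven arrestin aggregation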
Chain of G-protein coupled receptor 55 (Q9Y2T6 whole entry): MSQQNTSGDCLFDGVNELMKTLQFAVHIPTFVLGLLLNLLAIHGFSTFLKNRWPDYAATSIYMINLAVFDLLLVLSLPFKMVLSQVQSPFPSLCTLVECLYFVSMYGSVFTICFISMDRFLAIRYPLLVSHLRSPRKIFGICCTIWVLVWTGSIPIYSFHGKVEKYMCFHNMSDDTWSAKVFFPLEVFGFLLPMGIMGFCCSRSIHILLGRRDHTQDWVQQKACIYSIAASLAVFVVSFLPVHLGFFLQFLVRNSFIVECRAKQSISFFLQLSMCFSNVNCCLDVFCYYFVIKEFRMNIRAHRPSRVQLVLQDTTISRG

[7] = HEp-2 cell cytotoxicity, dose response, cytotoxicity control for RSV inhibitor project, HTS (AID 2410); format: functional; settings: human respiratory syncytial virus
Escherichia coli = assay: microbe, parasite or virus in culture
Coagulation factor XII = molecular target: T4, Coagulation factor XII (Homo sapiens, UniProt P00748); format: functional;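 note: activated factor XIIa alpha cleaving a fluorogenic AMC peptide substrate; inhibitor potency from loss of enzyme activity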
T4 sequence (P00748 whole entry): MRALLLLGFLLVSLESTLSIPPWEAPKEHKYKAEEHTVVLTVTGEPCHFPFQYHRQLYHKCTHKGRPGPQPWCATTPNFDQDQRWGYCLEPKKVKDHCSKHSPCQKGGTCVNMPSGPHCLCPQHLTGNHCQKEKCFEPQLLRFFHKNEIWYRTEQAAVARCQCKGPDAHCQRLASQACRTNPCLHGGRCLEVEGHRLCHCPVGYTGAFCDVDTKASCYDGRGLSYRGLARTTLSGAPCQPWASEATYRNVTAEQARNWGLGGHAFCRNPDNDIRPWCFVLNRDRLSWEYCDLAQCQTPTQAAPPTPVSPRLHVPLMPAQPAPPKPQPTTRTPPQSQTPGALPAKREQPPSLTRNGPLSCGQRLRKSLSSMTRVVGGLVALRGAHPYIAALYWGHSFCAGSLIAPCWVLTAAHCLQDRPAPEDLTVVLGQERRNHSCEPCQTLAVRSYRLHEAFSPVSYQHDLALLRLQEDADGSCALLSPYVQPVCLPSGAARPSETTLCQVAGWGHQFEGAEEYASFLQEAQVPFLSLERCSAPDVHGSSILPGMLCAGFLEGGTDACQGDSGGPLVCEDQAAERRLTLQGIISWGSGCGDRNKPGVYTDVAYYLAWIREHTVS

[8] = molecular target: Induced myeloid leukemia cell differentiation protein Mcl-1 (Homo sapiens, UniProt Q07820); format: functional
Chain of Induced myeloid leukemia cell differentiation protein Mcl-1 (Q07820 whole entry): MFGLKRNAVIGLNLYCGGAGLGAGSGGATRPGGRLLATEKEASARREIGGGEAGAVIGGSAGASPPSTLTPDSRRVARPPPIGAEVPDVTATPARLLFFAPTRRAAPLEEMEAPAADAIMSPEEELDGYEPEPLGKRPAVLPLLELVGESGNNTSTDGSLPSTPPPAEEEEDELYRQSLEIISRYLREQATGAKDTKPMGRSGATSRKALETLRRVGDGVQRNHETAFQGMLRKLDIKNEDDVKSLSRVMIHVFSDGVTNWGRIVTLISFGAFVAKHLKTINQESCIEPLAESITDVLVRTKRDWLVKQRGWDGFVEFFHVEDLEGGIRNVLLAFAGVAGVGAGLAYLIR

[9] = molecular target: Peroxisome proliferator-activated receptor gamma/Nuclear receptor coactivator 3 (Homo sapiens, UniProt P37231); format: functional;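 note: agonist potency for raising coactivator recruitment to the receptor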
[10] = molecular target: Peroxisome proliferator-activated receptor gamma/Nuclear receptor coactivator 2 (Homo sapiens, UniProt P37231); format: functional;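 note: agonist potency for raising coactivator recruitment to the receptor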
[11] = molecular target: Peroxisome proliferator-activated receptor gamma/Nuclear receptor coactivator 1 (Homo sapiens, UniProt P37231); format: functional;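 note: agonist potency as compounds enhance coactivator SRC-1 recruitment to PPARgamma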
[12] = molecular target: T5, Rac GTPase-activating protein 1 (Homo sapiens, UniProt Q9H0H5); assay: MgcRacGAP GTPase-activating activity inhibitors, confirmation, biochemical, ADP Hunter fluorescence, primary and confirmatory (AID 624330); format: functional
T5 sequence (Q9H0H5 whole entry): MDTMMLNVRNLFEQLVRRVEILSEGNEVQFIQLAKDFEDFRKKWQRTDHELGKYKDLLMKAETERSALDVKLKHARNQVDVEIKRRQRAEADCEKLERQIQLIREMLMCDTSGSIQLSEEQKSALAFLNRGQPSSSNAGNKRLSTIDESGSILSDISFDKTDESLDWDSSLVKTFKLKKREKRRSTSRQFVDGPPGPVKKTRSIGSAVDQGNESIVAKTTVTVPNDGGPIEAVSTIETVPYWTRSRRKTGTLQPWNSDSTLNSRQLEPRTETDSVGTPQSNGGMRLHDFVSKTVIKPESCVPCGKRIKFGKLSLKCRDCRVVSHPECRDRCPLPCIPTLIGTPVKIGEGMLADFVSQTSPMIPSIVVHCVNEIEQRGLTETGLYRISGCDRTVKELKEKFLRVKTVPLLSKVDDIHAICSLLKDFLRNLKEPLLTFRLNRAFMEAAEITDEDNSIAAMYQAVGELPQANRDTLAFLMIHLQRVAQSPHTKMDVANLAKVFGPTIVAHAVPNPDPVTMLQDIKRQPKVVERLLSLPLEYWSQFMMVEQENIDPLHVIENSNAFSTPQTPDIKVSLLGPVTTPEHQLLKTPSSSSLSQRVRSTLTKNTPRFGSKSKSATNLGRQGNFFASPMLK

HEK293 [13] = assay: cells; format: functional, cell-based; settings: Homo sapiens
HEK293 [14] = assay: NOD2 signaling inhibitors in MDP-stimulated cells, cell-based, uHTS, luminescence (AID 2001); format: functional; settings: Homo sapiens
HEK293 [15] = assay: cells; format: functional, cell-based; settings: Homo sapiens; remark: listed apart in the source
HEK293 [16] = assay: cells; format: functional, cell-based; settings: Homo sapiens; remark: listed apart in the source
[17] = molecular target: Nucleotide-binding oligomerization domain-containing protein 2 (Homo sapiens, UniProt Q9HC29); assay: NOD2 signaling inhibitors, cell-based, luminescence, uHTS, HEK293 (AID 1566); format: functional
Chain of Nucleotide-binding oligomerization domain-containing protein 2 (Q9HC29 whole entry, the tested form may be a part): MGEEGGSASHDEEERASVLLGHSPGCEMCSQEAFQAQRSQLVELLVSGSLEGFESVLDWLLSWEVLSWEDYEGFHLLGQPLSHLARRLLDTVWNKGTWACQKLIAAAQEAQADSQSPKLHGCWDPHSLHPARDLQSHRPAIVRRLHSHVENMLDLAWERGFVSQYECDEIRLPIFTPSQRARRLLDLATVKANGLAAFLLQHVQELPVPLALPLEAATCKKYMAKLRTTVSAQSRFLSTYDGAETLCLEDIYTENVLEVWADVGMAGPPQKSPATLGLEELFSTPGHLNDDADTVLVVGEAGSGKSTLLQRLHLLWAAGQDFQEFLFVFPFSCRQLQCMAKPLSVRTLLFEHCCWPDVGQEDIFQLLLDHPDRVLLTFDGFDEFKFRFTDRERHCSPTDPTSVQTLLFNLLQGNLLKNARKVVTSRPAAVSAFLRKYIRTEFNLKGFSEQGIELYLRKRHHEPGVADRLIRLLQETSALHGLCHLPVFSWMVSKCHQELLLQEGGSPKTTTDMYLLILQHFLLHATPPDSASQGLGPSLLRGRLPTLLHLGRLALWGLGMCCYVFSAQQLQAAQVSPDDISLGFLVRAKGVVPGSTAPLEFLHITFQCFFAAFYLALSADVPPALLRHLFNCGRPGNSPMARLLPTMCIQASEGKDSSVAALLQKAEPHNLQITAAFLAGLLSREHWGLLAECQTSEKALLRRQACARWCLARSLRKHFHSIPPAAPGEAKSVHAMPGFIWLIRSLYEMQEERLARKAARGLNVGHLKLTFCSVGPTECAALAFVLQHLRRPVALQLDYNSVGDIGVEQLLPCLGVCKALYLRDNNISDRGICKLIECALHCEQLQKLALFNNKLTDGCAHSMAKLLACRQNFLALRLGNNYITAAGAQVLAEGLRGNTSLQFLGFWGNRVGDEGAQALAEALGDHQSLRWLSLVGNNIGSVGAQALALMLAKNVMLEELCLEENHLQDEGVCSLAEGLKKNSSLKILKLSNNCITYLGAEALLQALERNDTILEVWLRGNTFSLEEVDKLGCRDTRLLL

HEK293 [18] = assay: NOD1 signaling inhibitors, primary screen, cell-based, luminescence, uHTS (AID 1578); format: functional; settings: Homo sapiens
[19] = molecular target: T6, Alkaline phosphatase, tissue-nonspecific isozyme (Homo sapiens, UniProt P05186); assay: human TNAP enzyme inhibitors, SAR follow-up, biochemical, luminescent, dose response (AID 1056)
T6 sequence (P05186 whole entry): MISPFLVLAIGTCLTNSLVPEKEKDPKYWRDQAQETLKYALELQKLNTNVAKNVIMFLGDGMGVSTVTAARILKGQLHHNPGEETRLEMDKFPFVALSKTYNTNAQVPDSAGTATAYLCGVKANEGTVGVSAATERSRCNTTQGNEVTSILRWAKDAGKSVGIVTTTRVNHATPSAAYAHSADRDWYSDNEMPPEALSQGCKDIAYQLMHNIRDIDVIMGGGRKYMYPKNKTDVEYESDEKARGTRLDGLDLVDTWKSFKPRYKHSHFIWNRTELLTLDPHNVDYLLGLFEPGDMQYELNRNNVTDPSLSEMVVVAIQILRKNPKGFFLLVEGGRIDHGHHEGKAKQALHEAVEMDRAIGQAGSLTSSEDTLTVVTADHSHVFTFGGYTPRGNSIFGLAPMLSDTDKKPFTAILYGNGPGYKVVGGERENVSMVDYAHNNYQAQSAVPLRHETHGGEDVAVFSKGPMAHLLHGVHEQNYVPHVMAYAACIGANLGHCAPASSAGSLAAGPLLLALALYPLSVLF

[20] = C. albicans growth with fluconazole, confirmation, fluorescence, retest (AID 2467); format: functional, cell-based
[21] = NIH-3T3 fibroblast cytotoxicity, dose response, cytotoxicity control, cell-based, fluorescence, Alamar Blue, secondary assay (AID 2327); format: functional;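 note: NIH-3T3 mouse fibroblasts cultured with fluconazole at 8 µg/mL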
[22] = molecular target: T7, Ubiquitin-conjugating enzyme E2 N (Homo sapiens, UniProt P61088); format: functional;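 note: Dose-response confirmation in a TR-FRET assay detecting UBC13-driven polyubiquitin chain formation, inhibition measured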
T7 sequence (P61088 whole entry): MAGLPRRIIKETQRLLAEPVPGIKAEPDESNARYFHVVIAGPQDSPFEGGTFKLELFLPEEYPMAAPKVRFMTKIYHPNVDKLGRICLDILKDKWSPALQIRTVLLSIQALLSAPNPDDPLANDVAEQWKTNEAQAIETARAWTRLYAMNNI

[23] = cytotoxicity toward NIH3T3 fibroblasts, dose response, counter-screen, cell-based, ATP luminescence, mouse fibroblasts (AID 2010); format: functional;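 note: cells exposed to compound for about 90 hours before reading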
[24] = inhibitors of intracellular T. cruzi replication, confirmation, NIH3T3 host cells, beta-gal luminescence (AID 2044); format: functional, cell-based;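 note: intracellular parasites grown in NIH/3T3 mouse fibroblasts as host cells; luminescent beta-galactosidase reporter signal from transgenic T. cruzi replicating inside host cells; inhibitors lower the luminescence signal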

Compound: Cc1cc(C(=O)O)ccc1-c1ccc(/C=C2\NC(=O)N(Cc3ccc(F)cc3)C2=O)o1
IC50 [1]: 20.8 µM (active)
IC50 (Genome polyprotein): > 100 µM (active)
IC50 [2]: 42 µM (active)
IC50 [3]: 3.42 µM (active)
EC50 [4]: 195 µM (active)
EC50 [5]: 191 µM (active)

Compound: COc1cc(NS(=O)(=O)c2ccc(Nc3nc(-c4ccccc4)cs3)cc2)nc(OC)n1
IC50 [6]: 4.49 µM (active)
CC50 [7]: 11.3 µM (active)

Compound: CC(C)(C)OC(=O)[C@H](Cc1ccccc1)NC(=O)c1[nH]cnc1C(=O)NC1CCN(C(=O)OC(C)(C)C)CC1
IC50 [6]: 5.3 µM (active)
AC50 (Escherichia coli): 19 µM (active)

Compound: Cc1ccc(S(=O)(=O)/C(=C/Cl)NC(=O)c2ccccc2)cc1
IC50 (HEK293 [13]): 3.6 µM (active)
IC50 (HEK293 [14]): 3.32 µM (active)
IC50 (HEK293 [15]): > 20 µM (inactive)
IC50 (HEK293 [16]): > 20 µM (inactive)
EC50 [17]: 14.3 µM (active)
EC50 (HEK293 [18]): 6.37 µM (active)

Compound: CCCCn1c(N)c(N(CCOC)C(=O)c2cc(-c3ccc(OC)c(OC)c3)nc3ccccc23)c(=O)[nH]c1=O
IC50 [1]: 7.62 µM (active)
IC50 [2]: 9.16 µM (active)

Compound: O=C(/C=C/c1ccco1)N1CCN(S(=O)(=O)c2cccc([N+](=O)[O-])c2)CC1
IC50 [1]: 15.5 µM (active)
IC50 [2]: 23.6 µM (active)

Compound: Cc1ccc(O)c(/N=C/c2cc(Cc3ccccc3)cc([N+](=O)[O-])c2O)c1
IC50 (HEK293 [13]): > 20 µM (inactive)
EC50 [20]: 3.37 µM (active)
IC50 (HEK293 [14]): 12.4 µM (inactive)
IC50 (HEK293 [15]): > 20 µM (inactive)
IC50 (HEK293 [16]): > 20 µM (inactive)
EC50 [17]: 9.92 µM (active)
IC50 [12]: 37.8 µM (active)
EC50 [21]: 13.8 µM (active)
EC50 (HEK293 [18]): 6.21 µM (active)

Compound: Cn1c(=O)c2c(ncn2Cc2ccccc2)n(C)c1=O
IC50 [22]: > 20 µM (inactive)

Compound: COc1ccc(/C=N/NS(=O)(=O)c2ccc(F)cc2)cc1COc1cc(F)ccc1[N+](=O)[O-]
IC50 (HEK293 [13]): 6.45 µM (active)
IC50 (HEK293 [14]): > 20 µM (inactive)
IC50 (HEK293 [15]): > 20 µM (inactive)
IC50 (HEK293 [16]): > 20 µM (inactive)
EC50 [17]: > 20 µM (inactive)
EC50 [23]: > 60 µM (inconclusive)
EC50 [24]: 2.19 µM (active)
EC50 (HEK293 [18]): > 20 µM (inactive)

Next, values leading:

IC50 [6]: 3.14 µM (active)
Compound: CNC(=O)c1ccc(NC(=O)CC23CC4CC(CC(C4)C2)C3)cc1

IC50 (Coagulation factor XII): > 50 µM (inactive)
Compound: Cc1ccc(NC(=O)CSc2nnc([C@H](C)NC(=O)OC(C)(C)C)o2)c(C)c1

IC50 (Coagulation factor XII): > 50 µM (inactive)
Compound: CCNc1ccc2c(Cl)cc(=O)oc2c1

IC50 [8]: 21.2 µM (not active)
EC50 [9]: > 79.4 µM (not active)
EC50 [10]: > 79.4 µM (not active)
EC50 [11]: > 79.4 µM (not active)
Compound: CC(C)(O)C#Cc1ccc(CN2CCN(C3CCCCC3)C(CCO)C2)cc1 (centres undefined)

IC50 (Coagulation factor XII): > 50 µM (inactive)
Compound: CCc1c(C)nc2ncnn2c1N1CCC(C(=O)Nc2ccccc2)CC1

IC50 (Coagulation factor XII): > 50 µM (inactive)
IC50 [12]: 105 µM (active)
Compound: COCCNCC(=O)Nc1nc(C)cs1

IC50 [19]: > 100 µM (inactive)
Compound: O=C(Cn1ccnc1-c1ccccc1)c1ccc(O)c(O)c1
